Laboratory results taken from patent publication US10253052B2, “HBED-bisphosphonates, radiometal conjugates and their use as theranostic agents” (Five Eleven Pharma Inc., priority 2015, dated 2019).

What was measured:
[1] = In vitro binding to hydroxyapatite; conditions: 20 mg hydroxyapatite in saline, 10 min at room temperature
In short: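 Binding is given as the percentage of ^68Ga activity retained by hydroxyapatite, measured by gamma counting of the solid versus the pooled supernatant and saline washes. The tracer (1 μCi) was exposed for 10 min at room temperature to hydroxyapatite pre-soaked 24 h in isotonic saline.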

[2] = In vivo biodistribution in mice; parameters: species or system normal CD-1 male mice; conditions: for bone to blood ratio / bone to muscle ratio / Biodistribution: Blood / Biodistribution: Bone / Biodistribution: Brain / Biodistribution: Heart / Biodistribution: Kidney / Biodistribution: Liver / Biodistribution: Lung / Biodistribution: Muscle / Biodistribution: Pancreas / Biodistribution: Skin / Biodistribution: Spleen: iv
In short: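 Uptake values are % injected dose per gram of wet tissue, from gamma counting of weighed organs with tibia plus femur taken as bone. Tracers (20-30 μCi per animal) were given i.v. to healthy male CD-1 mice (25-30 g), with sacrifice at 2, 30, 60 and 120 min post injection.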

[3] = Micro-PET imaging in normal mice; type: in vivo, normal CD-1 male mice; conditions: 15 min scan at 60 min post-injection
Description: [^68Ga]1a, [^68Ga]BPAMD and [^18F]NaF were tested in normal CD-1 male mice. [^68Ga]1g was tested in PSMA expressing LNCaP tumor bearing nude mice. Mice received 300-500 uCi radiotracer through a tail vein injection. PET imaging was performed under isoflurane anaesthesia (2% isoflurane, 1.5 L/min oxygen). The microPET imaging was performed with a small animal PET (Mosaic by Phillips, USA). During PET measurements, the animals were placed in the prone position. At 60 min post injection of the radiotracer, data acquisition was performed for 15 min.

For `O=C(O)CN1CCN(CC(=O)O)CCN(CC(=O)NC(P(=O)(O)O)P(=O)(O)O)CCN(CC(=O)O)CC1.[68Ga]` [[^68Ga]BPAMD, reference compound], the “Hydroxyapatite Binding (%)” value [1] was 90.6 ± 6.0%, the “bone to blood ratio” value ([2]; 2 min) was 0.8 and the “bone to muscle ratio” value ([2]; 2 min) was 4.3. For the same compound, the “Biodistribution: Blood” value ([2]; 2 min post injection) was 9.45 ± 0.55 % dose/g, the “Biodistribution: Bone” value ([2]; 2 min post injection) was 7.07 ± 0.94 % dose/g and the “Biodistribution: Brain” value ([2]; 2 min post injection) was 0.26 ± 0.01 % dose/g. For the same compound, the “Biodistribution: Heart” value ([2]; 2 min post injection) was 2.74 ± 0.23 % dose/g, the “Biodistribution: Kidney” value ([2]; 2 min post injection) was 22.1 ± 8.80 % dose/g and the “Biodistribution: Liver” value ([2]; 2 min post injection) was 1.92 ± 0.31 % dose/g. For the same compound, the “Biodistribution: Lung” value ([2]; 2 min post injection) was 4.58 ± 0.36 % dose/g, the “Biodistribution: Muscle” value ([2]; 2 min post injection) was 1.63 ± 0.35 % dose/g and the “Biodistribution: Pancreas” value ([2]; 2 min post injection) was 1.73 ± 0.11 % dose/g. The “Biodistribution: Skin” value ([2]; 2 min post injection) was 2.57 ± 0.53 % dose/g, the “Biodistribution: Spleen” value ([2]; 2 min post injection) was 1.90 ± 0.14 % dose/g and the “bone to blood ratio” value ([2]; 30 min) was 10. For the same compound, the “bone to muscle ratio” value ([2]; 30 min) was 19, the “Biodistribution: Blood” value ([2]; 30 min (0.5 hr) post injection) was 1.02 ± 0.19 % dose/g and the “Biodistribution: Bone” value ([2]; 30 min (0.5 hr) post injection) was 10.5 ± 0.6 % dose/g. The “Biodistribution: Brain” value ([2]; 30 min (0.5 hr) post injection) was 0.06 ± 0.02 % dose/g, the “Biodistribution: Heart” value ([2]; 30 min (0.5 hr) post injection) was 0.29 ± 0.02 % dose/g and the “Biodistribution: Kidney” value ([2]; 30 min (0.5 hr) post injection) was 1.46 ± 0.19 % dose/g. For the same compound, the “Biodistribution: Liver” value ([2]; 30 min (0.5 hr) post injection) was 0.22 ± 0.02 % dose/g, the “Biodistribution: Lung” value ([2]; 30 min (0.5 hr) post injection) was 0.50 ± 0.16 % dose/g and the “Biodistribution: Muscle” value ([2]; 30 min (0.5 hr) post injection) was 0.55 ± 0.11 % dose/g. For the same compound, the “Biodistribution: Pancreas” value ([2]; 30 min (0.5 hr) post injection) was 0.27 ± 0.14 % dose/g, the “Biodistribution: Skin” value ([2]; 30 min (0.5 hr) post injection) was 0.39 ± 0.15 % dose/g and the “Biodistribution: Spleen” value ([2]; 30 min (0.5 hr) post injection) was 0.22 ± 0.14 % dose/g. For the same compound, the “bone to blood ratio” value ([2]; 60 min) was 10, the “bone to muscle ratio” value ([2]; 60 min) was 30 and the “Biodistribution: Blood” value ([2]; 60 min (1 hr) post injection) was 0.93 ± 0.06 % dose/g. For the same compound, the “Biodistribution: Bone” value ([2]; 60 min (1 hr) post injection) was 9.21 ± 0.90 % dose/g, the “Biodistribution: Brain” value ([2]; 60 min (1 hr) post injection) was 0.04 ± 0.00 % dose/g and the “Biodistribution: Heart” value ([2]; 60 min (1 hr) post injection) was 0.37 ± 0.06 % dose/g. The “Biodistribution: Kidney” value ([2]; 60 min (1 hr) post injection) was 2.88 ± 1.51 % dose/g, the “Biodistribution: Liver” value ([2]; 60 min (1 hr) post injection) was 0.25 ± 0.03 % dose/g and the “Biodistribution: Lung” value ([2]; 60 min (1 hr) post injection) was 0.51 ± 0.09 % dose/g. For the same compound, the “Biodistribution: Muscle” value ([2]; 60 min (1 hr) post injection) was 0.31 ± 0.04 % dose/g, the “Biodistribution: Pancreas” value ([2]; 60 min (1 hr) post injection) was 0.30 ± 0.02 % dose/g and the “Biodistribution: Skin” value ([2]; 60 min (1 hr) post injection) was 0.60 ± 0.08 % dose/g. The “Biodistribution: Spleen” value ([2]; 60 min (1 hr) post injection) was 0.21 ± 0.02 % dose/g, the “bone to blood ratio” value ([2]; 120 min) was 11 and the “bone to muscle ratio” value ([2]; 120 min) was 33. For the same compound, the “Biodistribution: Blood” value ([2]; 120 min post injection) was 0.90 ± 0.41 % dose/g, the “Biodistribution: Bone” value ([2]; 120 min post injection) was 9.62 ± 0.71 % dose/g and the “Biodistribution: Brain” value ([2]; 120 min post injection) was 0.03 ± 0.01 % dose/g. The “Biodistribution: Heart” value ([2]; 120 min post injection) was 0.26 ± 0.07 % dose/g, the “Biodistribution: Kidney” value ([2]; 120 min post injection) was 1.09 ± 0.26 % dose/g and the “Biodistribution: Liver” value ([2]; 120 min post injection) was 0.31 ± 0.11 % dose/g. The “Biodistribution: Lung” value ([2]; 120 min post injection) was 0.45 ± 0.10 % dose/g, the “Biodistribution: Muscle” value ([2]; 120 min post injection) was 0.29 ± 0.06 % dose/g and the “Biodistribution: Pancreas” value ([2]; 120 min post injection) was 0.33 ± 0.07 % dose/g. The “Biodistribution: Skin” value ([2]; 120 min post injection) was 0.55 ± 0.04 % dose/g, the “Biodistribution: Spleen” value ([2]; 120 min post injection) was 0.25 ± 0.08 % dose/g and the “Biodistribution result in words (organ uptake, retention, excretion)” value ([2]; normal mice after iv injection) was “less bone uptake and retention”. The “Micro-PET localization (in words)” value [3] was “localized in the spines of mice”.
In the case of `O=C([O-])CN(CCN(CC(=O)[O-])Cc1cc(CCC(=O)N[C@@H](CCC(=O)O)C(=O)O)ccc1[O-])Cc1cc(CCC(=O)NC(P(=O)(O)O)P(=O)(O)O)ccc1[O-].[68Ga+3]` [[^68Ga]1f], the “Hydroxyapatite Binding (%)” value [1] was 96.4 ± 1.2%, the “bone to blood ratio” value ([2]; 2 min) was 1 and the “bone to muscle ratio” value ([2]; 2 min) was 4. The “Biodistribution: Blood” value ([2]; 2 min post injection) was 8.98 ± 0.68 % dose/g, the “Biodistribution: Bone” value ([2]; 2 min post injection) was 8.62 ± 0.23 % dose/g and the “Biodistribution: Brain” value ([2]; 2 min post injection) was 0.22 ± 0.00 % dose/g. For the same compound, the “Biodistribution: Heart” value ([2]; 2 min post injection) was 3.53 ± 0.57 % dose/g, the “Biodistribution: Kidney” value ([2]; 2 min post injection) was 24.7 ± 3.13 % dose/g and the “Biodistribution: Liver” value ([2]; 2 min post injection) was 2.43 ± 0.27 % dose/g. For the same compound, the “Biodistribution: Lung” value ([2]; 2 min post injection) was 5.01 ± 0.81 % dose/g, the “Biodistribution: Muscle” value ([2]; 2 min post injection) was 2.10 ± 0.12 % dose/g and the “Biodistribution: Pancreas” value ([2]; 2 min post injection) was 1.96 ± 0.15 % dose/g. For the same compound, the “Biodistribution: Skin” value ([2]; 2 min post injection) was 2.62 ± 0.11 % dose/g, the “Biodistribution: Spleen” value ([2]; 2 min post injection) was 2.20 ± 0.26 % dose/g and the “bone to blood ratio” value ([2]; 30 min) was 33. The “bone to muscle ratio” value ([2]; 30 min) was 74, the “Biodistribution: Blood” value ([2]; 30 min (0.5 hr) post injection) was 0.52 ± 0.05 % dose/g and the “Biodistribution: Bone” value ([2]; 30 min (0.5 hr) post injection) was 16.8 ± 1.66 % dose/g. For the same compound, the “Biodistribution: Brain” value ([2]; 30 min (0.5 hr) post injection) was 0.02 ± 0.00 % dose/g, the “Biodistribution: Heart” value ([2]; 30 min (0.5 hr) post injection) was 0.23 ± 0.01 % dose/g and the “Biodistribution: Kidney” value ([2]; 30 min (0.5 hr) post injection) was 2.05 ± 0.52 % dose/g. For the same compound, the “Biodistribution: Liver” value ([2]; 30 min (0.5 hr) post injection) was 0.28 ± 0.02 % dose/g, the “Biodistribution: Lung” value ([2]; 30 min (0.5 hr) post injection) was 0.42 ± 0.03 % dose/g and the “Biodistribution: Muscle” value ([2]; 30 min (0.5 hr) post injection) was 0.23 ± 0.01 % dose/g. The “Biodistribution: Pancreas” value ([2]; 30 min (0.5 hr) post injection) was 0.15 ± 0.01 % dose/g, the “Biodistribution: Skin” value ([2]; 30 min (0.5 hr) post injection) was 0.49 ± 0.04 % dose/g and the “Biodistribution: Spleen” value ([2]; 30 min (0.5 hr) post injection) was 0.22 ± 0.03 % dose/g. For the same compound, the “bone to blood ratio” value ([2]; 60 min) was 78, the “bone to muscle ratio” value ([2]; 60 min) was 222 and the “Biodistribution: Blood” value ([2]; 60 min (1 hr) post injection) was 0.18 ± 0.04 % dose/g. The “Biodistribution: Bone” value ([2]; 60 min (1 hr) post injection) was 14.4 ± 3.01 % dose/g, the “Biodistribution: Brain” value ([2]; 60 min (1 hr) post injection) was 0.01 ± 0.00 % dose/g and the “Biodistribution: Heart” value ([2]; 60 min (1 hr) post injection) was 0.11 ± 0.01 % dose/g. For the same compound, the “Biodistribution: Kidney” value ([2]; 60 min (1 hr) post injection) was 1.59 ± 0.72 % dose/g, the “Biodistribution: Liver” value ([2]; 60 min (1 hr) post injection) was 0.20 ± 0.02 % dose/g and the “Biodistribution: Lung” value ([2]; 60 min (1 hr) post injection) was 0.21 ± 0.01 % dose/g. The “Biodistribution: Muscle” value ([2]; 60 min (1 hr) post injection) was 0.06 ± 0.00 % dose/g, the “Biodistribution: Pancreas” value ([2]; 60 min (1 hr) post injection) was 0.08 ± 0.02 % dose/g and the “Biodistribution: Skin” value ([2]; 60 min (1 hr) post injection) was 0.15 ± 0.01 % dose/g. The “Biodistribution: Spleen” value ([2]; 60 min (1 hr) post injection) was 0.12 ± 0.04 % dose/g, the “bone to blood ratio” value ([2]; 120 min) was 180 and the “bone to muscle ratio” value ([2]; 120 min) was 374. For the same compound, the “Biodistribution: Blood” value ([2]; 120 min post injection) was 0.09 ± 0.01 % dose/g, the “Biodistribution: Bone” value ([2]; 120 min post injection) was 16.7 ± 1.12 % dose/g and the “Biodistribution: Brain” value ([2]; 120 min post injection) was 0.01 ± 0.01 % dose/g. The “Biodistribution: Heart” value ([2]; 120 min post injection) was 0.07 ± 0.01 % dose/g, the “Biodistribution: Kidney” value ([2]; 120 min post injection) was 1.08 ± 0.20 % dose/g and the “Biodistribution: Liver” value ([2]; 120 min post injection) was 0.19 ± 0.01 % dose/g. The “Biodistribution: Lung” value ([2]; 120 min post injection) was 0.13 ± 0.01 % dose/g, the “Biodistribution: Muscle” value ([2]; 120 min post injection) was 0.04 ± 0.01 % dose/g and the “Biodistribution: Pancreas” value ([2]; 120 min post injection) was 0.04 ± 0.00 % dose/g. The “Biodistribution: Skin” value ([2]; 120 min post injection) was 0.09 ± 0.01 % dose/g and the “Biodistribution: Spleen” value ([2]; 120 min post injection) was 0.08 ± 0.01 % dose/g.
